The target of this test is T1, hTLR9 (Homo sapiens, UniProt Q9NR96).
T1 sequence (Q9NR96 26-1032): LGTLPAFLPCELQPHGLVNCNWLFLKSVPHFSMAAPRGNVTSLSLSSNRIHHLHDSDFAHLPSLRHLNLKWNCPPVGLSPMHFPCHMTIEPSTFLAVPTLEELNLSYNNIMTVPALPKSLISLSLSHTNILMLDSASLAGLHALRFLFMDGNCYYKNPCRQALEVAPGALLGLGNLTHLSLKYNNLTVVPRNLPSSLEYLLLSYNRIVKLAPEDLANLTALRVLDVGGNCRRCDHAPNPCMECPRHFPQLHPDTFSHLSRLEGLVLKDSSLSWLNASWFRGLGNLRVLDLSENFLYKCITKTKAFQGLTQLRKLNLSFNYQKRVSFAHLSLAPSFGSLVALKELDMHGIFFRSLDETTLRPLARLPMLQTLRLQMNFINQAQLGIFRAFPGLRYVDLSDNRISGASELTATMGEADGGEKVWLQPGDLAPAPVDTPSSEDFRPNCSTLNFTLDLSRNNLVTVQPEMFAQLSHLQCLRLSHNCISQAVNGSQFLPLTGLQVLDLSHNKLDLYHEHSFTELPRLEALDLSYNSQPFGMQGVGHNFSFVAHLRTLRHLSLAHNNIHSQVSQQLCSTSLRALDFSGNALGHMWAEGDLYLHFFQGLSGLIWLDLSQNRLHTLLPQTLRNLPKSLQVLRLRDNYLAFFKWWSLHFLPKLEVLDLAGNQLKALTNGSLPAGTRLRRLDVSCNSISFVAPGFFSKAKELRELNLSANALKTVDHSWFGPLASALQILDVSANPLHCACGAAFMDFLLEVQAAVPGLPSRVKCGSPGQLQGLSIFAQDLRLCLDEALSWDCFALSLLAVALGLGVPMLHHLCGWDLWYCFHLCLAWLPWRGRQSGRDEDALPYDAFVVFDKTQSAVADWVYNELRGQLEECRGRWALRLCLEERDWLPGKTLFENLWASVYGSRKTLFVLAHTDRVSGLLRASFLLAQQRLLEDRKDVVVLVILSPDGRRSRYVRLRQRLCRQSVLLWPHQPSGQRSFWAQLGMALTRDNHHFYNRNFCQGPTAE
The test is described as follows: HEK293-Blue-hTLR-9 cells assay (SEAP reporter, ODN2006 stimulation). Also noted: host or cells: HEK293 (HEK-Blue hTLR9). It counts as cell-based. Conditions: HEK293-Blue-hTLR9 cells, ODN2006, 20 hrs; read-out: HEK/hTLR9 IC50. The procedure, abridged:
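HEK293-Blue-hTLR9 cells with NF-κB/AP-1-driven SEAP reporter treated with serially diluted compound (1% DMSO final) plus ODN2006 for 20 h at 37 °C. Supernatant SEAP measured with QUANTI-Blue, 2 h at 37 °C, absorbance 620–655 nm; antagonism seen as reduced reporter signal.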

Structures are written as SMILES.

For the molecule `C[C@@H]1CN(c2ccc(C#N)c3ncccc23)C[C@H](CN2CCN(c3ccccc3C3CNCCO3)CC2)O1` (stereo partly drawn) [Example 89, 5-[(2R,6S)-2-methyl-6-[[4-(2-morpholin-2-ylphenyl)piperazin-1-yl]methyl]morpholin-4-yl]quinoline-8-carbonitrile], the IC50 turned out to be 99 nM.

The record behind these values is patent publication US20210395239A1 (Hoffmann-La Roche Inc., priority 2018, published 2021).
